Test results: paper PMC11500415, “Chemical inhibition of stomatal differentiation by perturbation of the master-regulatory bHLH heterodimer via an ACT-Like domain” (Nature Communications, 2024)
Several values for one entry are separate records, joined by “and”; a condition that tells them apart may be missing. Equal entries are not always repeated.

What was measured:
[1] = target: T1, SCRM-FAMA heterodimer (Arabidopsis thaliana, UniProt Q56YJ8); experiment: Y2H growth and quantitative α-galactosidase assay; type: cell-based; settings: for a-galactosidase: yeast FAMA∆N+SCRM, individual replicates, listed as AYSJ929
T1 construct: truncated SPCH and FAMA proteins lacking their N-terminal domain were used in yeast; expressed in transfected cells; host or cells: yeast strain AH109
T1 sequence (Q56YJ8 190-414, one chain of several): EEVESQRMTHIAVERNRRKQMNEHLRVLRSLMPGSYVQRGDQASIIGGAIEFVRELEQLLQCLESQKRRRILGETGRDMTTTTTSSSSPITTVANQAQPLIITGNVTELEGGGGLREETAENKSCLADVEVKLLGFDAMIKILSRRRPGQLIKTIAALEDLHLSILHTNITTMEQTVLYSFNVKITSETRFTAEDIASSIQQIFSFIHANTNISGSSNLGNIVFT
Description: (§1) Y2H assays were performed using the Matchmaker^TM Two-Hybrid System (Clontech). Bait (pGBKT7) and prey (pGADT7) constructs were co-transformed into the yeast strain AH109 using Frozen-EZ Yeast Transformation II Kit (Zymo Research, T2001). The resulting transformants were spotted on SD ( − Leu, −Trp) and SD ( − Trp, −Leu, −His) selection media containing different concentrations of 3-amino-1,2,4-triazole (Sigma, A8056) as previously reported. Quantitative α-galactosidase assay was also performed according to manufactural instruction (Clontech). Briefly, the transformants were incubated in 2 ml SD medium with 0, 10, 50 100 μM Stomidazolone (3) or SIM3* (7) with rotary shake (220 rpm) at 30 °C overnight. The cultured media containing yeast were transferred to microtubes and centrifuged to obtain the supernatant. The colorimetric assay was performed by incubating 8 μL of supernatant with 24 μL Assay Buffer that contains 0.5 M sodium acetate (pH 4.5) (Nakalai tesque, 31137-25): 100 mM p-nitrophenyl α-D-Galactopyranoside Solution (Sigma N0877) = 2:1 (v/v) at 30 °C for 60 min, then terminated by adding 960 μL 1X Stop Solution (0.1 M sodium carbonate, Fujifilm Wako 195-01582). After OD410 was recorded, α-galactosidase units were calculated according to the protocol (Clontech, P3024-1).

[2] = target: T2, SCRM-MUTE heterodimer (Arabidopsis thaliana, UniProt Q9M8K6); experiment: Y2H growth and quantitative α-galactosidase assay; type: cell-based; settings: for a-galactosidase: yeast MUTE+SCRM, individual replicates, listed as AYSJ929
T2 construct: expressed in transfected cells; host or cells: yeast strain AH109
T2 sequence (Q9M8K6 1-202): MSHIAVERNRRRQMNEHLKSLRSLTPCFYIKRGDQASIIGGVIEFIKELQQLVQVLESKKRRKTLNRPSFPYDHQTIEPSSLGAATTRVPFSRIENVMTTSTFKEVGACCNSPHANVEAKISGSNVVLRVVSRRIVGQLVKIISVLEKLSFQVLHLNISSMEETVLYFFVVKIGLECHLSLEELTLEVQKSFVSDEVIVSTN
Description: as §1

[3] = target: T3, FAMA (Arabidopsis thaliana, UniProt Q56YJ8); experiment: ITC direct binding; set-up: species or system A. thaliana
T3 construct: ΔNFAMA (190-414); made in house; host or cells: E. coli BL21
T3 sequence (Q56YJ8 190-414): as the sequence (Q56YJ8 190-414, one chain of several) above

[4] = target: T4, MUTE_ACTLE162A_E163A (Arabidopsis thaliana, UniProt Q9M8K6, E162A/E163A); experiment: ITC direct binding; set-up: species or system A. thaliana
T4 construct: MUTE-ACTL (114-202); made in house; host or cells: E. coli BL21
T4 sequence (Q9M8K6 114-202 E162A/E163A): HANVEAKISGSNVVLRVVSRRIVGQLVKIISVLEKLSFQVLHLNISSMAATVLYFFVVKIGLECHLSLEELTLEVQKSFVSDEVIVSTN

O=C1C(c2ccccc2)=NC(NS(=O)(=O)c2ccccc2)(c2ccccc2)N1S(=O)(=O)c1ccccc1 (stereo not shown) [Stomidazolone]
effect in quantitative α-galactosidase assay ([1]; 0, 10, 50, 100 μM): inhibits these stomatal bHLH heterodimers in a dose-dependent manner | effect on association in Y2H growth assay ([1]; 50 μM, 1 mM 3-AT, N-terminally truncated FAMA): diminishes | a-galactosidase ([1]; 10 µM): 9.32 milliunits /(ml x cell) and 7.38 milliunits /(ml x cell) and 8.74 milliunits /(ml x cell) | a-galactosidase ([1]; 50 µM): 7.60 milliunits /(ml x cell) and 6.41 milliunits /(ml x cell) and 6.17 milliunits /(ml x cell) | a-galactosidase ([1]; 100 µM): 5.72 milliunits /(ml x cell) and 5.36 milliunits /(ml x cell) and 4.71 milliunits /(ml x cell) | effect in quantitative α-galactosidase assay ([2]; 0, 10, 50, 100 μM): inhibits these stomatal bHLH heterodimers in a dose-dependent manner | effect on association in Y2H growth assay ([2]; 50 μM, 1 mM 3-AT): diminishes | a-galactosidase ([2]; 10 µM): 6.11 milliunits /(ml x cell) and 7.57 milliunits /(ml x cell) and 6.75 milliunits /(ml x cell) | a-galactosidase ([2]; 50 µM): 4.46 milliunits /(ml x cell) and 5.23 milliunits /(ml x cell) and 6.35 milliunits /(ml x cell) | a-galactosidase ([2]; 100 µM): 5.40 milliunits /(ml x cell) and 3.71 milliunits /(ml x cell) and 5.42 milliunits /(ml x cell) | -T△S [3]: 2.4 ± 0.3 | Kd [3]: 80.4 ± 4.1 µM | △G [3]: -1.8 ± 0.2 | △H [3]: -4.2 ± 0.2 | -T△S ([4]; MUTE_ACTL E162A_E163A): 3.1 ± 0.3 | Kd ([4]; MUTE_ACTL E162A_E163A): 85.5 ± 5.5 µM | △G ([4]; MUTE_ACTL E162A_E163A): -4.5 ± 0.2 | △H ([4]; MUTE_ACTL E162A_E163A): -7.6 ± 0.5 | increase in the Kd value versus wild-type MUTE ([4]; authors' response to reviewers, data of the original Fig. S3): ~5 fold
